Assay results published in patent publication US20090227607A1, “DEAZAPURINES USEFUL AS INHIBITORS OF JANUS KINASES” (priority 2006, published 2009).

Key:
[1] = target: JAK-2 enzyme (Homo sapiens, UniProt O60674); assay: JAK2 Inhibition Assay; assay type: biochemical; conditions: 15 μM poly(Glu)4Tyr, 12 μM ATP, 25° C.
Description: (§1) Compounds were screened for their ability to inhibit JAK3 using the assay shown below. Reactions were carried out in a kinase buffer containing 100 mM HEPES (pH 7.4), 1 mM DTT, 10 mM MgCl2, 25 mM NaCl, and 0.01% BSA. Substrate concentrations in the assay were 5 μM ATP (200 uCi/μmole ATP) and 1 μM poly(Glu)4Tyr. Reactions were carried out at 25° C. and 1 nM JAK3.
(§2) To each well of a 96 well polycarbonate plate was added 1.5 μl of a candidate JAK3 inhibitor along with 50 μl of kinase buffer containing 2 μM poly(Glu)4Tyr and […]. This was then mixed and […] of kinase buffer containing 2 nM JAK3 enzyme was added to start the reaction. After 20 minutes at room temperature (25° C.), the reaction was stopped with 50 μl of 20% trichloroacetic acid (TCA) that also contained 0.4 mM ATP. The entire contents of each well were then transferred to a 96 well glass fiber filter plate using a TomTek Cell Harvester. After washing, 60 μl of scintillation fluid was added and ^33P incorporation detected on a Perkin Elmer TopCount.
The assays were as described above in Example 36 except that JAK-2 enzyme was used, the final poly(Glu)4Tyr concentration was 15 μM, and final ATP concentration was 12 μM.
(§3) Tables 5 and 6 depict enzyme inhibition data (Ki) for certain exemplary compounds. Compound numbers in Tables 5 and 6 correspond to those compounds depicted in Tables 1 and 2, respectively.

[2] = target: T1, JAK3 (Homo sapiens, UniProt P52333); assay: JAK3 Inhibition Assay; assay type: biochemical; conditions: 1 μM poly(Glu)4Tyr, 5 μM ATP, 1 nM JAK3, 25° C.; read-out: JAK3 enzyme inhibition data (Ki)
T1 sequence (P52333 1-1124): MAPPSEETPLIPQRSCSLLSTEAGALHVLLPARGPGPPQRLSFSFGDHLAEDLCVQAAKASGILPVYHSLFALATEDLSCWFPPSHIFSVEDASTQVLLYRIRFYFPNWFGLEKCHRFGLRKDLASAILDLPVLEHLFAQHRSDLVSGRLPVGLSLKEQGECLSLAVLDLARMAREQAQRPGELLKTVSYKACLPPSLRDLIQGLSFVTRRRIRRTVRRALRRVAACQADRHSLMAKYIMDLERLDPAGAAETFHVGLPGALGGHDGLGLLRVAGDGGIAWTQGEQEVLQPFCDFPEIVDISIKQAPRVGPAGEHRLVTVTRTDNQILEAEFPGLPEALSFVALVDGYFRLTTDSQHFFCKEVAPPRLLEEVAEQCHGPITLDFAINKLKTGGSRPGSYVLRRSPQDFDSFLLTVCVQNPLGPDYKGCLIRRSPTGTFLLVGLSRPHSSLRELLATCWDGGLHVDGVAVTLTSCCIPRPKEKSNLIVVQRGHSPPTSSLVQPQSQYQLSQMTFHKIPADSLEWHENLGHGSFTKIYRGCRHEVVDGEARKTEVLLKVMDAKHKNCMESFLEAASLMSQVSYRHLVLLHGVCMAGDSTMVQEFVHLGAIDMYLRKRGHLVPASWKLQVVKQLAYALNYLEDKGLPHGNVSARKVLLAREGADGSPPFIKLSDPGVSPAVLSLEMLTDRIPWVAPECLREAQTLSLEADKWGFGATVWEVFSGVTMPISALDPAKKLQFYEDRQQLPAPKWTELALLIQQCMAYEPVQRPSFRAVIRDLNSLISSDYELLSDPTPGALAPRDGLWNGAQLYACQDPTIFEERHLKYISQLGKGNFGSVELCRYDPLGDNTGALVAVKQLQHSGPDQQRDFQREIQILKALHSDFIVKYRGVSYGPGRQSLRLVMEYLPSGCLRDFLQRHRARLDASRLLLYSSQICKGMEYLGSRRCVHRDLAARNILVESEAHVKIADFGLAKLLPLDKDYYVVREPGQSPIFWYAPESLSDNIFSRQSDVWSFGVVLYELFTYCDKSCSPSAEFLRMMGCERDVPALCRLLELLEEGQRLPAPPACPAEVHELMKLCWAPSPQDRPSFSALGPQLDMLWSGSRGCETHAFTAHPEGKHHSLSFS
Description: as §1, §2, §3

JAK-2 enzyme, sequence (O60674 whole entry, species assumed): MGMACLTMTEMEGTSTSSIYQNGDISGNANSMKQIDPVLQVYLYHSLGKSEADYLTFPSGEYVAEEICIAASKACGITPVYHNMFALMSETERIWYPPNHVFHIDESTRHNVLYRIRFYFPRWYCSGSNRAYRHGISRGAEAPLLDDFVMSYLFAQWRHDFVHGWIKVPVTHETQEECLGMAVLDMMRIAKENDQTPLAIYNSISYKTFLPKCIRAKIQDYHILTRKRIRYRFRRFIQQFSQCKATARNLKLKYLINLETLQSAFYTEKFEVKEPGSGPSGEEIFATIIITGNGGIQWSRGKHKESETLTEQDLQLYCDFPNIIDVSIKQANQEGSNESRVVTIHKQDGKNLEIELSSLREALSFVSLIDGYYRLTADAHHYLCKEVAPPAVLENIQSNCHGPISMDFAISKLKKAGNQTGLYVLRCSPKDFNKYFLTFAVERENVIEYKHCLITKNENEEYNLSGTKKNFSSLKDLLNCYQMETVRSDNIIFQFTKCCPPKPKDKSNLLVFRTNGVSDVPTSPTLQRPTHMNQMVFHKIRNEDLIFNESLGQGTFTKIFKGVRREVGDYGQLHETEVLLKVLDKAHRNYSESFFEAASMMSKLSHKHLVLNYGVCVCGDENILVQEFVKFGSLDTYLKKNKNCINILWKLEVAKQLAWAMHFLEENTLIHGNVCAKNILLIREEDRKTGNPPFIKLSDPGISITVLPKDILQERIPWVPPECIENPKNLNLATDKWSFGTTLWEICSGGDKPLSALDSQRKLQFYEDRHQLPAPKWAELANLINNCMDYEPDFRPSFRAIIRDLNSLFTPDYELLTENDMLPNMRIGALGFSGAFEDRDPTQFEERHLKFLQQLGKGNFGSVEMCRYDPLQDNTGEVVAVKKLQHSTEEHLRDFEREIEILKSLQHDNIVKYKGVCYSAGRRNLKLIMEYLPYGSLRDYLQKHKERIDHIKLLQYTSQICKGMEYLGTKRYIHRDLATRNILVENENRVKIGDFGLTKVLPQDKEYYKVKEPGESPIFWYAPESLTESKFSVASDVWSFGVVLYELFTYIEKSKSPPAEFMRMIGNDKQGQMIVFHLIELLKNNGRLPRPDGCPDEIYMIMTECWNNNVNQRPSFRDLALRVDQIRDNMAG

Ki [1] [nM] | Ki [2] [nM] | SMILES
100 to 500 | < 100 | CC(C)CNC(=O)C(C)n1cc(-c2ncnc3[nH]ccc23)cn1 (centres unmarked) [Compound 74]
100 to 500 | < 100 | CC(C(=O)NC1CCCC1)n1cc(-c2ncnc3[nH]ccc23)cn1 (centres unmarked) [Compound 75]
500 to 5000 | 500 to 5000 | CC(C(=O)NCC1CCCO1)n1cc(-c2ncnc3[nH]ccc23)cn1 (centres unmarked) [Compound 76]
100 to 500 | 500 to 5000 | CC(C(=O)N(C)C)n1cc(-c2ncnc3[nH]ccc23)cn1 (centres unmarked) [Compound 77]
100 to 500 | 100 to 500 | CC(C)NC(=O)C(C)n1cc(-c2ncnc3[nH]ccc23)cn1 (centres unmarked) [Compound 78]
500 to 5000 | 100 to 500 | CC(CO)NC(=O)C(C)n1cc(-c2ncnc3[nH]ccc23)cn1 (centres unmarked) [Compound 79]
500 to 5000 | 100 to 500 | CC(O)CNC(=O)C(C)n1cc(-c2ncnc3[nH]ccc23)cn1 (centres unmarked) [Compound 80]
500 to 5000 | 500 to 5000 | COCCNC(=O)C(C)n1cc(-c2ncnc3[nH]ccc23)cn1 (centres unmarked) [Compound 81]
100 to 500 | 100 to 500 | CCC(CO)NC(=O)C(C)n1cc(-c2ncnc3[nH]ccc23)cn1 (centres unmarked) [Compound 82]
500 to 5000 | 100 to 500 | CCC(O)CNC(=O)C(C)n1cc(-c2ncnc3[nH]ccc23)cn1 (centres unmarked) [Compound 83]
100 to 500 | 100 to 500 | CSCCNC(=O)C(C)n1cc(-c2ncnc3[nH]ccc23)cn1 (centres unmarked) [Compound 84]
500 to 5000 | 500 to 5000 | CC(C)OCCNC(=O)C(C)n1cc(-c2ncnc3[nH]ccc23)cn1 (centres unmarked) [Compound 85]
100 to 500 | 100 to 500 | CC(C(=O)NCc1ccccc1)n1cc(-c2ncnc3[nH]ccc23)cn1 (centres unmarked) [Compound 86]
100 to 500 | 100 to 500 | CC(C(=O)N1CCCC1)n1cc(-c2ncnc3[nH]ccc23)cn1 (centres unmarked) [Compound 87]

Further lines, the compound ahead of its results:

SMILES | Ki [1] [nM] | Ki [2] [nM]
O=C(Nc1nc(-c2ncnc3[nH]ccc23)cs1)C1CCC1 [Compound 57] | < 100 | < 100
CC1CC1C(=O)Nc1nc(-c2ncnc3[nH]ccc23)cs1 (centres unmarked) [Compound 58] | < 100 | < 100
O=C(Nc1nc(-c2ncnc3[nH]ccc23)cs1)C1CC=CC1 [Compound 59] | < 100 | < 100
O=C(Nc1nc(-c2ncnc3[nH]ccc23)cs1)C1CCCC1O (centres unmarked) [Compound 60] | < 100 | < 100
O=C(Nc1nc(-c2ncnc3[nH]ccc23)cs1)C1CCOCC1 [Compound 61] | < 100 | < 100
CC1CCC(C(=O)Nc2nc(-c3ncnc4[nH]ccc34)cs2)CC1 (centres unmarked) [Compound 62] | < 100 | 100 to 500
COC1CCCC(C(=O)Nc2nc(-c3ncnc4[nH]ccc34)cs2)C1 (centres unmarked) [Compound 63] | < 100 | 100 to 500
O=C(CC(F)(F)F)Nc1nc(-c2ncnc3[nH]ccc23)cs1 [Compound 64] | < 100 | < 100
O=C1CCC(C(=O)Nc2nc(-c3ncnc4[nH]ccc34)cs2)CC1 [Compound 65] | < 100 | < 100
CC(C)(C)CC(=O)Nc1nc(-c2ncnc3[nH]ccc23)cs1 [Compound 66] | < 100 | < 100
O=C(CCC1CCCC1)Nc1nc(-c2ncnc3[nH]ccc23)cs1 [Compound 67] | < 100 | < 100
O=C(CCc1ccccc1)Nc1nc(-c2ncnc3[nH]ccc23)cs1 [Compound 68] | < 100 | < 100
C=CCCC(=O)Nc1nc(-c2ncnc3[nH]ccc23)cs1 [Compound 69] | < 100 | < 100
O=C(CC1CC1)Nc1nc(-c2ncnc3[nH]ccc23)cs1 [Compound 70] | < 100 | < 100
CC(=O)CCC(=O)Nc1nc(-c2ncnc3[nH]ccc23)cs1 [Compound 71] | < 100 | 100 to 500
CC(C)CCC(=O)Nc1nc(-c2ncnc3[nH]ccc23)cs1 [Compound 72] | < 100 | < 100
CC(C(=O)NC1CC1)n1cc(-c2ncnc3[nH]ccc23)cn1 (centres unmarked) [Compound 73] | 100 to 500 | 100 to 500
